Results reported in ChEMBL document CHEMBL4627367, “Structure-based design and synthesis of novel furan-diketopiperazine-type derivatives as potent microtubule inhibitors for treating cancer” (Bioorg Med Chem, 2020).
pIC50: −log10 of the molar value. Activity calls are given as the source filed them. The rule behind the calls is not given here.

Tests used:
NCI-H460 = test: Cytotoxicity against human NCI-H460 cells assessed as reduction in cell viability after 72 hrs by MTT assay; assay type: functional, cell-based; conditions: NCI-H460, 72 h
BXPC-3 = test: Cytotoxicity against human BxPC3 cells assessed as reduction in cell viability incubated for 72 hrs by MTT assay; assay type: functional, cell-based; conditions: BXPC-3, 72 h
Tubulin (Homo sapiens) [1] = target: T1, Tubulin (Homo sapiens) (UniProt P68371+Q9H4B7+P0DPH7+P68366+Q13509+Q71U36+P04350+Q3ZCM7+P07437+P68363+Q9BQE3+Q6PEY2+Q13885+Q9BVA1+Q9BUF5); test: Inhibition of tubulin in human NCI-H460 cells assessed as inhibition of microtubule polymerization at 10 nM after 24 hrs by immunofluorescence assay; assay type: cell-based
HT-29 = test: Cytotoxicity against human HT-29 cells assessed as reduction in cell viability after 72 hrs by MTT assay; assay type: functional, cell-based; conditions: HT-29, 72 h
Tubulin (Homo sapiens) [2] = target: T1, Tubulin (Homo sapiens); test: Inhibition of tubulin in human NCI-H460 cells assessed as inhibition of microtubule polymerization at 2 nM after 24 hrs by immunofluorescence assay; assay type: cell-based

Compound | pIC50 (NCI-H460) | pIC50 (BXPC-3) | inhibition (Tubulin (Homo sapiens) [1]) | pIC50 (HT-29) | inhibition (Tubulin (Homo sapiens) [2])
O=c1[nH]/c(=C\c2ccc(Cl)o2)c(=O)[nH]/c1=C\c1cccc(Oc2ccc(F)cc2)c1 | 6.74 |  |  |  | 
O=c1[nH]/c(=C\c2cc3ccccc3o2)c(=O)[nH]/c1=C\c1cccc(Oc2ccc(F)cc2)c1 | 6.46 |  |  |  | 
CC(C)(C)c1[nH]cnc1/C=c1\[nH]c(=O)/c(=C/c2ccccc2)[nH]c1=O [PLINABULIN] |  | 8.24 | Active | 8.18 | 
COCc1ccc(/C=c2\[nH]c(=O)/c(=C/c3cccc(C(=O)c4ccc(F)cc4)c3)[nH]c2=O)o1 | 8.54 | 8.70 | Active | 8.66 | 
O=C(c1ccc(F)cc1)c1cccc(/C=c2\[nH]c(=O)/c(=C/c3c[nH]cn3)[nH]c2=O)c1 | 6.56 | 8.37 |  | 8.29 | 
O=c1[nH]/c(=C\c2cccc(Oc3ccc(F)cc3)c2)c(=O)[nH]/c1=C\c1cccnc1 | < 6.00 |  |  |  | 
O=c1[nH]/c(=C\c2ccc(CO)o2)c(=O)[nH]/c1=C\c1cccc(Oc2ccc(F)cc2)c1 | 7.38 |  |  |  | 
O=c1[nH]/c(=C\c2nc[nH]c2C2CC2)c(=O)[nH]/c1=C\c1cccc(Oc2ccc(F)cc2)c1 | 7.82 | 8.03 |  | 8.13 | 
Cc1[nH]cnc1/C=c1\[nH]c(=O)/c(=C/c2cccc(C(=O)c3ccc(F)cc3)c2)[nH]c1=O | 7.80 |  |  |  | 
O=c1[nH]/c(=C\c2cccs2)c(=O)[nH]/c1=C\c1cccc(Oc2ccc(F)cc2)c1 | < 6.00 |  |  |  | 
O=C(c1ccc(F)cc1)c1cccc(/C=c2\[nH]c(=O)/c(=C/c3nc[nH]c3C3CC3)[nH]c2=O)c1 | 8.55 | 8.85 |  | 8.85 | 
O=c1[nH]/c(=C\c2cccc(Oc3ccc(F)cc3)c2)c(=O)[nH]/c1=C\c1ccccc1 | 6.41 |  |  |  | 
O=c1[nH]/c(=C\c2ccc(Br)o2)c(=O)[nH]/c1=C\c1cccc(Oc2ccc(F)cc2)c1 | 6.44 |  |  |  | 
O=c1[nH]/c(=C\c2c[nH]cn2)c(=O)[nH]/c1=C\c1cccc(Oc2ccc(F)cc2)c1 | 6.32 |  |  |  | 
CC(C)(C)c1[nH]cnc1/C=c1\[nH]c(=O)/c(=C/c2cccc(C(=O)c3ccc(F)cc3)c2)[nH]c1=O |  | 9.22 |  | 9.22 | Active
O=c1[nH]/c(=C\c2nc3ccccc3[nH]2)c(=O)[nH]/c1=C\c1cccc(Oc2ccc(F)cc2)c1 | < 6.00 |  |  |  | 
CC(C)c1[nH]cnc1/C=c1\[nH]c(=O)/c(=C/c2cccc(C(=O)c3ccc(F)cc3)c2)[nH]c1=O | 8.49 | 9.22 | Active | 9.10 | 
CC(C)c1[nH]cnc1/C=c1\[nH]c(=O)/c(=C/c2cccc(Oc3ccc(F)cc3)c2)[nH]c1=O | 8.06 | 8.47 | Active | 8.43 | 
Cc1ccc(/C=c2\[nH]c(=O)/c(=C/c3cccc(Oc4ccc(F)cc4)c3)[nH]c2=O)o1 | 7.52 |  |  |  | 
O=c1[nH]/c(=C\c2ccccn2)c(=O)[nH]/c1=C\c1cccc(Oc2ccc(F)cc2)c1 | 7.31 |  |  |  | 
CC(C)(C)c1[nH]cnc1/C=c1\[nH]c(=O)/c(=C/c2cccc(Oc3ccc(F)cc3)c2)[nH]c1=O |  | 8.49 | Active | 8.68 | 
O=c1[nH]/c(=C\C2CCCCC2)c(=O)[nH]/c1=C\c1cccc(Oc2ccc(F)cc2)c1 | < 6.00 |  |  |  | 
COCc1ccc(/C=c2\[nH]c(=O)/c(=C/c3cccc(Oc4ccc(F)cc4)c3)[nH]c2=O)o1 | 7.85 | 8.18 | Active | 8.15 | 
O=c1[nH]/c(=C\c2ncc[nH]2)c(=O)[nH]/c1=C\c1cccc(Oc2ccc(F)cc2)c1 | < 6.00 |  |  |  | 
Cc1[nH]cnc1/C=c1\[nH]c(=O)/c(=C/c2cccc(Oc3ccc(F)cc3)c2)[nH]c1=O | 7.32 |  |  |  | 
Cc1ccc(/C=c2\[nH]c(=O)/c(=C/c3cccc(C(=O)c4ccc(F)cc4)c3)[nH]c2=O)o1 | 8.28 | 8.43 |  | 8.48 | 
O=c1[nH]/c(=C\c2ccc([N+](=O)[O-])o2)c(=O)[nH]/c1=C\c1cccc(Oc2ccc(F)cc2)c1 | < 6.00 |  |  |  | 
O=c1[nH]/c(=C\c2ccco2)c(=O)[nH]/c1=C\c1cccc(Oc2ccc(F)cc2)c1 | 6.81 |  |  |  | 
